According to patent publication US20060088542A1 (priority 2002, published 2006):
“Also recorded” adds a separate entry of the source.

Key:
[1] = system: Balb/C mice; experiment: ELISA for subclass (IgG1/IgG2a) of HBsAg specific antibody; format: in vivo; conditions: Example 6; HBsAg specific antibody in serum; FIG. 15
[2] = system: Balb/C mice; experiment: g-IFN ELISPOT after PMID with HBV sAg/cAg plasmid; format: in vivo
[3] = system: Balb/C mice; experiment: Anti-sAg and anti-cAg antibody ELISAs after PMID with HBV sAg/cAg plasmid; format: in vivo; conditions: Example 7; either HBV antigen (sAg, cAg); data not shown
[4] = system: Balb/C mice; experiment: IL-4 ELISPOT after PMID with HBV sAg/cAg plasmid; format: in vivo
[5] = system: Balb/C mice; conditions: Example 2; prime and boost, HBsAg plasmid with HCMV promoter; FIG. 3
[6] = system: Balb/C mice; experiment: IFN-g ELISPOT of spleen cells after HBsAg DNA vaccine immunization; conditions: Example 2; prime and boost; FIG. 4
[7] = system: Balb/C mice; experiment: CD8 IFN-g ELISA of spleen cells after HBsAg DNA vaccine immunization; conditions: Example 2; prime and boost; FIG. 4
[8] = Example 7, summary of both experiments

| Structure (SMILES) | ratio of IgG1/IgG2a [1] | g-IFN secretion ([2]; Example 7, first experiment, highest dose of DNA, delivered right before or right after PMID) | g-IFN secretion ([2]; Example 7, first experiment, highest dose of DNA, given 24 hours after PMID) | g-IFN secretion ([2]; Example 7, first experiment, low doses of DNA, administration 24 hours post PMID compared with other time points) | g-IFN secretion ([2]; Example 7, first experiment, low doses of HBV-encoding DNA, right before, right after or 24 hours post PMID) | g-IFN response with class I-restricted peptide (CD8+ cells) ([2]; Example 7, first experiment, not shown) | frequency of cells which secreted g-IFN in response to antigen ([2]; Example 7, first experiment, sAg peptide library (primarily CD4+ cells), 2 weeks post prime, FIG. 16) | IFN-g ELISPOT response [2, 8] | optimal time point for augmenting g-IFN-secreting cells ([2]; Example 7, time of administration relative to PMID) | antibody titers [3] | IL-4 secretion, as measured by ELISPOT assay ([4]; Example 7, first experiment (prime only), not shown) | EL-4 ELISPOTs [4, 8] | Antibody levels [5] | cellular response, ELISPOTs [6] | cellular response, IFN-g ELISA [7] |
| --- | --- | --- | --- | --- | --- | --- | --- | --- | --- | --- | --- | --- | --- | --- | --- |
| CCCCC[C@H](O)/C=C/[C@H]1[C@H](O)CC(=O)[C@@H]1C/C=C\CCCC(=O)O [PGE2] | does not have the same effect overall | – | – | – | – | – | – | – | – | – | – | – | – | – | – |
| CC(C)Cn1cnc2c(N)nc3ccccc3c21 [imiquimod, 1-(2-methyl-propyl)-1H-imidazo[4,5-c]quinolin-4-amine] | – | slightly inhibitory | augments PMID | most effective | enhances g-IFN secretion | comaparable responses | enhancement of the frequency of cells which secreted g-IFN | primarily enhanced; also recorded: augments the frequency of g-IFN-secreting cells | about a day and upto 7 days after PMID | little effect; also recorded: did not enhance antibody responses | no effect | little effect | strong reduction in antibody levels | enhanced the responses | enhanced the responses |
